Test results: US8163740B2, “6-substituted benzoxazines” (Hoffmann-La Roche Inc., priority 2008, dated 2012)

Target: recombinant human 5-HT5A receptor (Homo sapiens, UniProt P47898)
Test: [3H]LSD radioligand binding assay
Conditions: not given
Protocol: A [^3H]LSD radioligand binding assay was used to determine the affinity of the compounds for the recombinant human 5-HT5A receptor, in membranes from transiently (cDNA) expressed 5-HT5A receptors in Human Embryonic Kidney-EBNA (HEK-EBNA) cells. Assay buffer consisted of Tris (50 mM) buffer containing 1 mM EGTA, 10 mM MgCl2 (pH 7.4) and 10 μM pargyline. The binding assay was carried out in 96-well-plates in the presence of [^3H]LSD (approximately 1 nM), approximately 2 μg/well of membrane protein, and 0.5 mg of Ysi-poly-1-lysine SPA beads in a final volume of 200 μl of buffer. Non-specific binding was defined using methiothepin 2 μM. Compounds were tested at 10 concentrations. All assays were conducted in duplicate and repeated at least two times. Assay plates were incubated for 120 min at room temperature before centrifugation. Bound ligand was determined using a Packard Topcount scintillation counter. IC50 values were calculated using a non-linear curve fitting program and Ki values calculated using the Cheng-Prussoff equation.

Chain of recombinant human 5-HT5A receptor (P47898 whole entry): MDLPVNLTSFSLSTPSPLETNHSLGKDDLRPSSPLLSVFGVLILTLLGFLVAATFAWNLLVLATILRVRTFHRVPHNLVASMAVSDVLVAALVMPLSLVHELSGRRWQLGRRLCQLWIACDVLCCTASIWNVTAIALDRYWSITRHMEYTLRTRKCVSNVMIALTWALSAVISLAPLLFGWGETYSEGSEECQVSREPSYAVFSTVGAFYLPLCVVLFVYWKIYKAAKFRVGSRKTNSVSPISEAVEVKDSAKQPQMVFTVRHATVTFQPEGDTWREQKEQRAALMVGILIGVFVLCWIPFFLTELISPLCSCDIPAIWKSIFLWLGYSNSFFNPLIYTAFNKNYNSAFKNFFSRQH

For `CN1C2COCC1CC(CC(=O)Nc1ccc3c(c1)COC(NC1CCc4ccccc41)=N3)C2` [Example 157, endo-N-[2-((R)-indan-1-ylamino)-4H-benzo[d][1,3]oxazin-6-yl]-2-(9-methyl-3-oxa-9-aza-bicyclo[3.3.1]non-7-yl)-acetamide], the Ki was 2.98 nM.

Same assay, conditions: [3H]LSD (approximately 1 nM); membranes from HEK-EBNA cells transiently expressing 5-HT5A; Ki by Cheng-Prussoff equation; read-out: Ki

Point of comparison: `COc1cccc2c1C(NC1=Nc3ccc(NS(=O)(=O)c4ccccc4)cc3CO1)CC2` (racemic) [Example 104, rac-N-[2-(7-Methoxy-indan-1-ylamino)-4H-benzo[d][1,3]oxazin-6-yl]-benzenesulfonamide], Ki 8.68 nM. Against it:
- O=C(Nc1ccc2c(c1)COC(NC1CCc3cc(F)ccc31)=N2)C1CC1 (racemic) [Example 20, rac-Cyclopropanecarboxylic acid [2-(5-fluoro-indan-1-ylamino)-4H-benzo[d][1,3]oxazin-6-yl]-amide] — 6.4-fold lower, 1.36 nM
- O=C(Cn1ccnc1)Nc1ccc2c(c1)COC(N[C@@H]1CCc3ccccc31)=N2 [Example 67, 2-Imidazol-1-yl-N-[2-((R)-indan-1-ylamino)-4H-benzo[d][1,3]oxazin-6-yl]-acetamide] — within 1.5-fold, 7.42 nM
- O=C(Nc1ccc2c(c1)COC(NC1CCCCCCC1)=N2)C1CC1 [Example 155, Cyclopropanecarboxylic acid (2-cyclooctylamino-4H-benzo[d][1,3]oxazin-6-yl)-amide] — 6.7-fold lower, 1.3 nM
- C=Cc1ccc2c(c1)COC(N[C@@H]1CCc3ccccc31)=N2 [Example 134, (R)-Indan-1-yl-(6-vinyl-4H-benzo[d][1,3]oxazin-2-yl)-amine] — 1.6-fold higher, 13.5 nM
- CN(C)S(=O)(=O)Nc1ccc2c(c1)COC(NCCOc1ccccc1)=N2 [Example 110, N,N-(Dimethyl)-N′-{2-(2-Phenoxy-ethylamino)-4H-benzo[d][1,3]oxazin-6-yl}-sulfamide] — 2.8-fold higher, 24.1 nM
- COc1cccc2c1C(NC1=Nc3ccc(NS(=O)(=O)C4CC4)cc3CO1)CC2 (racemic) [Example 103, rac-Cyclopropanesulfonic acid [2-(7-methoxy-indan-1-ylamino)-4H-benzo[d][1,3]oxazin-6-yl]-amide] — 3.1-fold lower, 2.82 nM
- COC[C@@H]1CN(CC(=O)Nc2ccc3c(c2)COC(N[C@@H]2CCc4ccccc42)=N3)C[C@@H](COC)N1C (mixture of isomers) [Example 158, 2-((3SR,5SR)-3,5-Bis-(methoxymethyl)-4-methyl-piperazin-1-yl)-N-[2-((R)-indan-1-ylamino)-4H-benzo[d][1,3]oxazin-6-yl]-acetamide] — 1.9-fold higher, 16.1 nM
- COCC1CN(CC(=O)Nc2ccc3c(c2)COC(NC2CCc4cccc(OC)c42)=N3)CCN1C (centres unmarked) [Example 146, N-[2-(7-Methoxy-indan-1-ylamino)-4H-benzo[d][1,3]oxazin-6-yl]-2-(3-methoxymethyl-4-methyl-piperazin-1-yl)-acetamide] — 2.3-fold lower, 3.7 nM
- COc1cccc2c1C(NC1=Nc3ccc(NS(=O)(=O)N4CCOCC4)cc3CO1)CC2 (racemic) [Example 63, rac-Morpholine-4-sulfonic acid [2-(7-methoxy-indan-1-ylamino)-4H-benzo[d][1,3]oxazin-6-yl]-amide] — 2.6-fold lower, 3.32 nM
- O=S(=O)(Nc1ccc2c(c1)COC(NC1CCCCCC1)=N2)C1CC1 [Example 97, Cyclopropanesulfonic acid (2-cycloheptylamino-4H-benzo[d][1,3]oxazin-6-yl)-amide] — 4.4-fold higher, 38.6 nM
- Nc1ccc2c(c1)COC(NC1CCCCCCC1)=N2 [Example 153, N^2-Cyclooctyl-4H-benzo[d][1,3]oxazine-2,6-diamine] — within 1.5-fold, 11.9 nM
- COc1cccc2c1C(NC1=Nc3ccc(NC(C)=O)cc3CO1)CC2 (racemic) [Example 52, rac-N-[2-(7-Methoxy-indan-1-ylamino)-4H-benzo[d][1,3]oxazin-6-yl]-acetamide] — 1.7-fold lower, 4.98 nM
- CN1CCN(CC(=O)Nc2ccc3c(c2)COC(NC2CCCCCC2)=N3)CC1 [Example 93, N-(2-Cycloheptylamino-4H-benzo[d][1,3]oxazin-6-yl)-2-(4-methyl-piperazin-1-yl)-acetamide] — within 1.5-fold, 10.8 nM
- COc1cccc2c1C(NC1=Nc3ccc(NC(=O)CN4CCN(C)CC4)cc3CO1)CC2 (racemic) [Example 86, rac-N-[2-(7-Methoxy-indan-1-ylamino)-4H-benzo[d][1,3]oxazin-6-yl]-2-(4-methyl-piperazin-1-yl)-acetamide] — 6.1-fold lower, 1.43 nM
- COc1cccc2c1C(NC1=Nc3ccc(NC(=O)CCl)cc3CO1)CO2 (racemic) [Example 8, rac-2-Chloro-N-[2-(4-methoxy-2,3-dihydro-benzofuran-3-ylamino)-4H-benzo[d][1,3]oxazin-6-yl]-acetamide] — 2.4-fold higher, 20.7 nM
- COc1cccc2c1C(NC1=Nc3ccc(Nc4nccc(C(F)(F)F)n4)cc3CO1)CC2 (racemic) [Example 81, rac-N^2-(7-Methoxy-indan-1-yl)-N^6-(4-trifluoromethyl-pyrimidin-2-yl)-4H-benzo[d][1,3]oxazine-2,6-diamine] — within 1.5-fold, 7.16 nM
- c1ccc2c(c1)CC[C@H]2NC1=Nc2ccc(C3CC3)cc2CO1 [Example 152, (6-Cyclopropyl-4H-benzo[d][1,3]oxazin-2-yl)-(R)-indan-1-yl-amine] — 3.1-fold higher, 27.3 nM
- NCc1ccc2c(c1)COC(N[C@@H]1CCc3ccccc31)=N2 [Example 129, (6-Aminomethyl-4H-benzo[d][1,3]oxazin-2-yl)-(R)-indan-1-yl-amine] — 1.5-fold higher, 13.3 nM
- CC(C)(O)CNCC(=O)Nc1ccc2c(c1)COC(NC1COc3cc(F)ccc31)=N2 (racemic) [Example 43, rac-N-[2-(6-Fluoro-2,3-dihydro-benzofuran-3-ylamino)-4H-benzo[d][1,3]oxazin-6-yl]-2-(2-hydroxy-2-methyl-propylamino)-acetamide] — 5.8-fold higher, 50.3 nM
- COc1cccc2c1C(NC1=Nc3ccc(NC(=O)C4CC4)cc3CO1)CC2 (racemic) [Example 25, rac-Cyclopropanecarboxylic acid [2-(7-methoxy-indan-1-ylamino)-4H-benzo[d][1,3]oxazin-6-yl]-amide] — 8.2-fold lower, 1.06 nM
- COCCNCC(=O)Nc1ccc2c(c1)COC(N[C@@H]1CCc3ccccc31)=N2 [Example 69, N-[2-((R)-Indan-1-ylamino)-4H-benzo[d][1,3]oxazin-6-yl]-2-(2-methoxy-ethylamino)-acetamide] — within 1.5-fold, 8.34 nM
- O=C(CN1CCS(=O)(=O)CC1)Nc1ccc2c(c1)COC(N[C@@H]1CCc3ccccc31)=N2 [Example 66, 2-(1,1-Dioxo-1λ^6-thiomorpholin-4-yl)-N-[2-((R)-indan-1-ylamino)-4H-benzo[d][1,3]oxazin-6-yl]-acetamide] — 1.8-fold higher, 16 nM
- Cc1ccc(CNC2=Nc3ccc(NC(=O)CN4CCOCC4)cc3CO2)o1 [Example 85, N-{2-[(5-Methyl-furan-2-ylmethyl)-amino]-4H-benzo[d][1,3]oxazin-6-yl}-2-morpholin-4-yl-acetamide] — 29-fold higher, 251 nM
- c1cc(NC2=Nc3ccc(NCc4ncc[nH]4)cc3CO2)cc(C2CC2)c1 [Example 125, N^2-(3-Cyclopropyl-phenyl)-N^6-(1H-imdazol-2-ylmethyl)-4H-benzo[d][1,3]oxazine-2,6-diamine] — 4.3-fold higher, 37.2 nM
- CN1CCN(CC(=O)Nc2ccc3c(c2)COC(NCCOc2ccccc2)=N3)CC1 [Example 122, 2-(4-Methyl-piperazin-1-yl)-N-[2-(2-phenoxy-ethylamino)-4H-benzo[d][1,3]oxazin-6-yl]-acetamide] — 1.7-fold lower, 5.11 nM
- O=C(CN1CCOCC1)Nc1ccc2c(c1)COC(NC1CCOc3ccccc31)=N2 (racemic) [Example 121, N-[2-(Chroman-4-ylamino)-4H-benzo[d][1,3]oxazin-6-yl]-2-morpholin-4-yl-acetamide] — 16-fold higher, 135 nM
- COc1ccccc1CNC1=Nc2ccc(NC(=O)CN3CCN(CCO)CC3)cc2CO1 [Example 28, 2-[4-(2-Hydroxy-ethyl)-piperazin-1-yl]-N-[2-(2-methoxy-benzylamino)-4H-benzo[d][1,3]oxazin-6-yl]-acetamide] — within 1.5-fold, 10.2 nM
- CN1CCN(S(=O)(=O)Nc2ccc3c(c2)COC(N[C@@H]2CCCc4ccccc42)=N3)CC1 [Example 71, 4-Methyl-piperazine-1-sulfonic acid {2-[(R)-(1,2,3,4-tetrahydro-naphthalen-1-yl)amino]-4H-benzo[d][1,3]oxazin-6-yl}-amide] — 16-fold higher, 138 nM
- O=S(=O)(Nc1ccc2c(c1)COC(N[C@@H]1CCc3ccccc31)=N2)N1CCCCC1 [Example 30, Piperidine-1-sulfonic acid [2-((R)-indan-1-ylamino)-4H-benzo[d][1,3]oxazin-6-yl]-amide] — 2.1-fold lower, 4.2 nM
- COCC1CN(CC(=O)Nc2ccc3c(c2)COC(N[C@@H]2CCc4ccccc42)=N3)CCN1C (stereo partly drawn) [Example 147, N-[2-((R)-Indan-1-ylamino)-4H-benzo[d][1,3]oxazin-6-yl]-2-(3-methoxymethyl-4-methyl-piperazin-1-yl)-acetamide] — 2.4-fold lower, 3.55 nM
- c1ccc(CNc2ccc3c(c2)COC(Nc2cccc(C4CC4)c2)=N3)cc1 [Example 136, N^6-Benzyl-N^2-(3-cyclopropyl-phenyl)-4H-benzo[d][1,3]oxazine-2,6-diamine] — 7.1-fold higher, 61.3 nM
- Fc1ccc2c(c1)CCC2NC1=Nc2ccc(Nc3cccc(C(F)(F)F)n3)cc2CO1 (racemic) [Example 57, rac-N^2-(5-Fluoro-indan-1-yl)-N^6-(6-trifluoromethyl-pyridin-2-yl)-4H-benzo[d][1,3]oxazine-2,6-diamine] — within 1.5-fold, 6.06 nM
- Cc1cc(C)nc(Nc2ccc3c(c2)COC(N[C@@H]2CCc4ccccc42)=N3)n1 [Example 47, N^6-(4,6-Dimethyl-pyrimidin-2-yl)-N^2-(R)-indan-1-yl-4H-benzo[d][1,3]oxazine-2,6-diamine] — 2.4-fold lower, 3.56 nM
